Laboratory results: ChEMBL document CHEMBL4402559, “Structure-Based Design and Pharmacokinetic Optimization of Covalent Allosteric Inhibitors of the Mutant GTPase KRASG12C” (J Med Chem, 2020)
Each block holds one molecule with its values, some of them ahead of it. The source made the active and inactive calls. No cut-off for these calls is given here.

Assays:
[1] = Intrinsic clearance in rat hepatocytes assessed per 10^-6 cells; format: ADME, cell-based, Hepatocyte
[2] = GSH reactivity in PBS buffer assessed as half life at pH 7.4 and 37 degree C in presence of glutathione; format: physicochemical; conditions: PBS buffer with glutathione
[3] = Distribution coefficient, log D of compound at pH 7.4; format: physicochemical; conditions: octanol/water
[4] = biological target: GTPase KRas (Homo sapiens, UniProt P01116, G12C); test: Inhibition of GDP bound biotinylated human C-terminal Avi/His6-tagged KRAS G12C mutant (1 to 166 residues) expressed in Escherichia coli BL21 (DE3) assessed as reduction in SOS1-mediated GDP/GTP nucleotide exchange by preventing recognition between KRAS G12C mutant and Ras binding domain of N-terminal Avi/GST-tagged Raf-1 (51 to 149 residues) preincubated for 4 hrs followed by SOS1 and GTPgammaS addition by FRET assay
[5] = Intrinsic clearance in human liver microsomes; format: ADME, Microsome; conditions: for microsomal CLint: liver microsomes, read-out: CLH
[6] = Efflux ratio of apparent permeability in human Caco2 cells at 10 uM at pH 7.4; format: ADME, cell-based; conditions: Caco-2, pH 7.4
[7] = system: SW1573; test: Antiproliferative activity against human SW1573 cells expressing KRAS G12C mutant assessed as cell growth inhibition cultured in soft agar medium containing compounds and supplemented with fresh medium for every 7 days by 3D soft agar proliferation assay; format: functional, cell-based
[8] = system: GTPase KRas (Homo sapiens), P01116 [UNDEFINED MUTATION]; test: Inhibition of KRas mutant expressed in human A549 cells assessed as […] at 1 uM measured after 6 hrs by TQ-UPLC/MS analysis; format: cell-based
[9] = system: GTPase KRas (Homo sapiens), P01116 [G12C]; test: Inhibition of KRAS G12C mutant expressed in human HCC44 cells assessed as […] at 1 uM measured after 6 hrs by TQ-UPLC/MS analysis relative to control; format: cell-based
[10] = in vivo; conditions: Han Wistar, rat, po, 2 umol/kg
[11] = system: GTPase KRas (Homo sapiens), P01116 [UNDEFINED MUTATION]; test: Inhibition of KRas mutant expressed in human H2291 cells assessed as […] at 1 uM measured after 6 hrs by TQ-UPLC/MS analysis; format: cell-based
[12] = system: Mus musculus; test: Decrease in DUSP6 mRNA level in tumor of athymic NU-Fox1nu mouse xenografted with human MIAPaca2 cells at 10 to 100 mg/kg, po qd measured at 3 to 24 hrs post-treatment by qRT-PCR analysis; format: functional, organism-based
[13] = system: GTPase KRas (Homo sapiens), P01116 [G12C]; test: Inhibition of KRAS G12C mutant expressed in human H1373 cells assessed as […] at 1 uM measured after 6 hrs by TQ-UPLC/MS analysis relative to control; format: cell-based
[14] = system: GTPase KRas (Homo sapiens), P01116 [G12C]; test: Binding affinity to KRAS G12C mutant in human […] cell lysate assessed as trypsin-mediated biotinylated cysteine residues digestion by measuring reduction in protein level at 4 uM prelabeled with iodoacetamide desthiobiotin followed by compound treatment measured after 4 hrs by MS analysis relative to control; format: subcellular
[15] = biological target: GTPase KRas (Homo sapiens) (UniProt P01116); test: Inhibition of wild type KRAS expressed in human PC9 cells assessed as […] at 1 uM measured after 6 hrs by TQ-UPLC/MS analysis; format: cell-based
[16] = system: GTPase KRas (Homo sapiens), P01116 [G12C]; test: Inhibition of KRAS G12C mutant expressed in human H1792 cells assessed as […] at 1 uM measured after 6 hrs by TQ-UPLC/MS analysis relative to control; format: cell-based
[17] = system: Lu-99 cell line; test: Antiproliferative activity against human LU99 cells expressing KRAS G12C mutant assessed as cell growth inhibition measured after 5 days by sytox green dye staining based 2D proliferation assay; format: functional
[18] = system: Lu-99 cell line; test: Antiproliferative activity against human LU99 cells expressing KRAS G12C mutant assessed as cell growth inhibition cultured in soft agar medium containing compounds and supplemented with fresh medium for every 7 days by 3D soft agar proliferation assay; format: functional, cell-based
[19] = Clearance in Han Wistar rat at 2 umol/kg, po or 1 umol/kg, iv; conditions: in vivo
[20] = system: SW1573; test: Antiproliferative activity against human SW1573 cells harboring KRAS G12C mutant assessed as cell growth inhibition measured after 5 days by sytox green dye staining based 2D proliferation assay; format: functional
[21] = system: MIA PaCa-2; test: Antitumor activity against human MIAPaCa2 cells harboring KRAS G12C mutant xenografted in orally dosed athymic NU-Fox1nu nude mouse assessed as tumor regression administered daily for 2 weeks and further treated for 3 weeks; format: functional, organism-based
[22] = system: GTPase KRas (Homo sapiens), P01116 [G12C]; test: Inhibition of KRAS G12C mutant in human H358 cells assessed as […] at 1 uM measured after 6 hrs by TQ-UPLC/MS analysis relative to control; format: cell-based
[23] = system: GTPase KRas (Homo sapiens), P01116 [G12C]; test: Inhibition of KRAS G12C mutant expressed in human H2122 cells assessed as […] at 1 uM measured after 6 hrs by TQ-UPLC/MS analysis relative to control; format: cell-based
[24] = system: GTPase KRas (Homo sapiens), P01116 [G12C]; test: Inhibition of KRAS G12C mutant expressed in human SW1573 cells assessed as […] at 1 uM measured after 6 hrs by TQ-UPLC/MS analysis relative to control; format: cell-based
[25] = system: GTPase KRas (Homo sapiens), P01116 [G12C]; test: Inhibition of KRAS G12C mutant expressed in human Calu1 cells assessed as […] at 1 uM measured after 6 hrs by TQ-UPLC/MS analysis relative to control; format: cell-based
[26] = system: GTPase KRas (Homo sapiens), P01116 [G12C]; test: Inhibition of KRAS G12C mutant expressed in human LU99 cells assessed as […] at 1 uM measured after 6 hrs by TQ-UPLC/MS analysis relative to control; format: cell-based
[27] = system: GTPase KRas (Homo sapiens), P01116 [G12C]; test: Inhibition of KRAS G12C mutant expressed in human LU65 cells assessed as […] at 1 uM measured after 6 hrs by TQ-UPLC/MS analysis relative to control; format: cell-based
[28] = system: GTPase KRas (Homo sapiens), P01116 [G12C]; test: Inhibition of KRAS G12C mutant expressed in human HOP62 cells assessed as […] at 1 uM measured after 6 hrs by TQ-UPLC/MS analysis relative to control; format: cell-based
[29] = system: GTPase KRas (Homo sapiens), P01116 [G12C]; test: Inhibition of KRAS G12C mutant expressed in human H23 cells assessed as […] at 1 uM measured after 6 hrs by TQ-UPLC/MS analysis relative to control; format: cell-based
[30] = Volume of distribution at steady state in Han Wistar rat at 2 umol/kg, po or 1 umol/kg, iv; conditions: in vivo

SMILES: C=CC(=O)N1C[C@@H]2COc3cnc4cc(-c5c(O)cccc5F)c(Cl)cc4c3N2C[C@@H]1C
hepatocyte intrinsic clearance [1]: 74 µL/min
half-life [2]: 585 min
logD ([3]; read-out: logD): 3.7
IC50 [4]: 7650 nM
microsomal CLint [5]: 100 µL/min/mg

hepatocyte intrinsic clearance [1]: 99 µL/min
logD ([3]; read-out: logD): 4.1
microsomal CLint [5]: 26 µL/min/mg
efflux ratio at 10 µM [6]: 1.5
SMILES: C=CC(=O)N1CCN2c3c(cnc4cc(-c5c(O)cccc5F)c(Cl)cc34)N(C)C[C@H]2C1

SMILES: C=CC(=O)N1CCN2c3c(cnc4cc(-c5c(C)ccc6[nH]ncc56)c(Cl)cc34)OCC[C@H]2C1
hepatocyte intrinsic clearance [1]: 102 µL/min
IC50 [4]: 627 nM
microsomal CLint [5]: > 300 µL/min/mg

SMILES: C=CC(=O)N1CCN2c3c(cnc4cc(-c5c(C)ccc6[nH]ncc56)c(Cl)cc34)OC[C@@H]2C1 (single isomer, unassigned; atropisomer 2)
hepatocyte intrinsic clearance [1]: 75 µL/min
logD ([3]; read-out: logD): 4.3
IC50 [4]: 610 nM
microsomal CLint [5]: 103 µL/min/mg

inhibition [8]: inactive
hepatocyte intrinsic clearance [1]: 11 µL/min
inhibition [9]: 79%
bioavailability [10]: 94%
inhibition [11]: inactive
inhibition [13]: 86%
half-life [2]: 334 min
fold change (FC) [14]: > 2
inhibition [15]: inactive
inhibition [16]: 75%
clearance [19]: 4 mL/min/kg
inhibition [22]: 82%
inhibition [23]: 74%
inhibition [24]: 70%
inhibition [25]: 73%
inhibition [26]: 100%
inhibition [27]: 84%
logD ([3]; read-out: logD): 3.4
IC50 [4]: < 5 nM
microsomal CLint [5]: 21 µL/min/mg
inhibition [28]: 89%
inhibition [29]: 80%
efflux ratio at 10 µM [6]: 1.1
Vd [30]: 1 L/kg
SMILES: C=CC(=O)N1C[C@@H]2C(=O)N(C)c3cnc4c(F)c(-c5c(O)cccc5F)c(Cl)cc4c3N2C[C@H]1C
growth inhibition (GI) [7]: inactive
inhibition [12]: Active
growth inhibition (GI) [17]: inactive
growth inhibition (GI) [18]: inactive
growth inhibition (GI) [20]: inactive
Activity [21]: Dose-dependent effect

SMILES: C=CC(=O)N1CCN2c3c(cnc4cc(-c5c(C)ccc6[nH]ncc56)c(Cl)cc34)OC[C@H]2C1 (single isomer, unassigned; atropisomer 2)
hepatocyte intrinsic clearance [1]: 65 µL/min
logD [3]: > 4.2
IC50 [4]: 1380 nM
Intrinsic clearance in human liver microsomes [5]: 46 µL/min/mg

hepatocyte intrinsic clearance [1]: 56 µL/min
logD ([3]; read-out: logD): 3.5
IC50 [4]: 496 nM
microsomal CLint [5]: 38 µL/min/mg
SMILES: C=CC(=O)N1CCN(c2ncnc3cc(-c4c(C)ccc5[nH]ncc45)c(Cl)cc23)CC1

hepatocyte intrinsic clearance [1]: 17 µL/min
logD ([3]; read-out: logD): 3.3
microsomal CLint [5]: 18 µL/min/mg
efflux ratio at 10 µM [6]: 1.4
SMILES: C=CC(=O)N1CCN2c3c(cnc4cc(-c5c(O)cccc5F)c(Cl)cc34)NC[C@H]2C1

hepatocyte intrinsic clearance [1]: 10 µL/min
bioavailability [10]: 56%
half-life [2]: 929 min
clearance [19]: 6 mL/min/kg
logD ([3]; read-out: logD): 2.9
microsomal CLint [5]: 21 µL/min/mg
efflux ratio at 10 µM [6]: 1.5
Vd [30]: 0.8 L/kg
SMILES: C=CC(=O)N1CCN2c3c(cnc4c(F)c(-c5c(O)cccc5F)c(Cl)cc34)N(C)C(=O)[C@H]2C1

SMILES: C=CC(=O)N1CCN2c3c(cnc4cc(-c5c(C)ccc6[nH]ncc56)c(Cl)cc34)OC[C@H]2C1 (single isomer, unassigned; atropisomer 1)
hepatocyte intrinsic clearance [1]: 174 µL/min
logD ([3]; read-out: logD): 4.2
Intrinsic clearance in human liver microsomes [5]: 165 µL/min/mg

SMILES: C=CC(=O)N1CCN2c3c(cnc4cc(-c5c(O)cccc5F)c(Cl)cc34)NC(=O)[C@H]2C1
hepatocyte intrinsic clearance [1]: 11 µL/min
logD ([3]; read-out: logD): 3
IC50 [4]: 73 nM
microsomal CLint [5]: 34 µL/min/mg
efflux ratio at 10 µM [6]: 17.9

SMILES: C=CC(=O)N1CCN2c3c(cnc4cc(-c5c(C)ccc6[nH]ncc56)c(Cl)cc34)OC[C@@H]2C1 (single isomer, unassigned; atropisomer 1)
hepatocyte intrinsic clearance [1]: 67 µL/min
logD [3]: 4
IC50 [4]: 8860 nM
Intrinsic clearance in human liver microsomes [5]: 121 µL/min/mg

SMILES: C=CC(=O)N1CCN2c3c(cnc4cc(-c5c(C)ccc6[nH]ncc56)c(Cl)cc34)OCC[C@@H]2C1
hepatocyte intrinsic clearance [1]: 104 µL/min
IC50 [4]: 4340 nM
microsomal CLint [5]: 81 µL/min/mg

SMILES: C=CC(=O)N1C[C@@H]2COc3cnc4cc(-c5c(O)cccc5F)c(Cl)cc4c3N2C[C@H]1C
hepatocyte intrinsic clearance [1]: 42 µL/min
bioavailability [10]: 96%
half-life [2]: 325 min
clearance [19]: 7 mL/min/kg
logD ([3]; read-out: logD): 3.8
IC50 [4]: 52 nM
microsomal CLint [5]: 32 µL/min/mg
efflux ratio at 10 µM [6]: 0.7
Vd [30]: 0.6 L/kg

hepatocyte intrinsic clearance [1]: 32 µL/min
bioavailability [10]: 64%
half-life [2]: 416 min
clearance [19]: 35 mL/min/kg
logD ([3]; read-out: logD): 3.6
microsomal CLint [5]: 25 µL/min/mg
efflux ratio at 10 µM [6]: 0.5
Vd [30]: 1.2 L/kg
SMILES: C=CC(=O)N1CCN2c3c(cnc4cc(-c5c(O)cccc5F)c(Cl)cc34)OC[C@H]2C1

SMILES: C=CC(=O)N1CCN2c3c(cnc4cc(-c5c(O)cccc5F)c(Cl)cc34)N(C)C(=O)[C@H]2C1
hepatocyte intrinsic clearance [1]: 7 µL/min
logD ([3]; read-out: logD): 3
IC50 [4]: 150 nM
microsomal CLint [5]: 24 µL/min/mg
efflux ratio at 10 µM [6]: 0.9

SMILES: C=CC(=O)N1CCN2c3c(cnc4c(F)c(-c5c(O)cccc5F)c(Cl)cc34)OC[C@H]2C1 (atropisomer aR)
hepatocyte intrinsic clearance [1]: 22 µL/min
logD ([3]; read-out: logD): 3.4
IC50 [4]: 16 nM
microsomal CLint [5]: 17 µL/min/mg

SMILES: C=CC(=O)N1CCN2c3c(cnc4c(OC)c(-c5c(O)cccc5F)c(Cl)cc34)OC[C@H]2C1 (single isomer, unassigned; atropisomer 2)
hepatocyte intrinsic clearance [1]: 56 µL/min
logD ([3]; read-out: logD): 3
IC50 [4]: 70 nM
microsomal CLint [5]: 40 µL/min/mg

hepatocyte intrinsic clearance [1]: 40 µL/min
logD ([3]; read-out: logD): 3.8
microsomal CLint [5]: 28 µL/min/mg
SMILES: C=CC(=O)N1CCN2c3c(cnc4c(C)c(-c5c(O)cccc5F)c(Cl)cc34)OC[C@H]2C1 (single isomer, unassigned; atropisomer)
